Assay results reported in ChEMBL document CHEMBL3813646, “Small molecules that target phosphorylation dependent protein-protein interaction” (Bioorg Med Chem, 2016).
Values belong to the compound of their own block, whether it stands above or below them. Residues, ends and D or L forms follow the SMILES beside them.

Legend:
[1] = target: T1, 14-3-3 protein sigma (Homo sapiens) (UniProt P31947); test: Induction of human 14-3-3sigma binding to TASK-3 using FAM-370RRK-pS-V374-COOH by fluorescence polarization assay relative to control
T1 sequence (whole entry): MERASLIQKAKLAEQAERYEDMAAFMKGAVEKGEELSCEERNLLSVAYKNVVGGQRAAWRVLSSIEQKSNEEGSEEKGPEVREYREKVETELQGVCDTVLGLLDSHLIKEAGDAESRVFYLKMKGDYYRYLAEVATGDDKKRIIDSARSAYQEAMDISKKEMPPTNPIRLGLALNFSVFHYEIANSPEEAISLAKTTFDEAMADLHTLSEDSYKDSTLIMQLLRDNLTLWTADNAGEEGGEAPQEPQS

14-3-3 protein sigma = target: T2, 14-3-3 protein sigma (Homo sapiens, UniProt P31947); test: Inhibition of 14-3-3sigma (unknown origin) assessed as reduction in 14-3-3sigma- mediated increase in MMP1 mRNA by cell based assay
T2 sequence (P31947 whole entry): T1 sequence (whole entry)

[2] = target: Serine/threonine-protein kinase PLK1 (Homo sapiens, UniProt P53350); test: Inhibition of human Plk1 PBD (326 to 603 residues) using 5-carboxyfluorescein-GPMQSpTPLNG-OH as substrate incubated for 1 hr prior to addition of substrate by fluorescence polarization assay
[3] = target: Serine/threonine-protein kinase PLK2 (Homo sapiens, UniProt Q9NYY3); test: Inhibition of human Plk2 PBD (355 to 685 residues) using 5-carboxyfluorescein-GPMQTSpTPKNG-OH as substrate incubated for 1 hr prior to addition of substrate by fluorescence polarization assay
[4] = target: Serine/threonine-protein kinase PLK3 (Homo sapiens, UniProt Q9H4B4); test: Inhibition of human Plk3 PBD (335 to 646 residues) using 5-carboxyfluorescein-GPLATSpTPKNG-OH as substrate incubated for 1 hr prior to addition of substrate by fluorescence polarization assay
[5] = target: Serine/threonine-protein kinase Chk2 (Homo sapiens) (UniProt O96017); test: Inhibition of Chk2 FHA (1 to 225 residues) (unknown origin) using 5-carboxyfluorescein-GHFDpTYLI-RR-OH as substrate at 40 uM incubated for 1 hr prior to addition of substrate by fluorescence polarization assay
[6] = target: Peptidyl-prolyl cis-trans isomerase NIMA-interacting 1 (Homo sapiens) (UniProt Q13526); test: Inhibition of Pin1 (1 to 162 residues) (unknown origin) using 5-carboxyfluorescein-GHFDpTYLI-RR-OH as substrate at 40 uM incubated for 1 hr prior to addition of substrate by fluorescence polarization assay
[7] = target: T3, 14-3-3 protein beta/alpha (Homo sapiens, UniProt P31946); test: Binding affinity to GST-tagged 125I-labelled 14-3-3beta (unknown origin) expressed in Escherichia coli by solid phase assay
T3 sequence (P31946 whole entry): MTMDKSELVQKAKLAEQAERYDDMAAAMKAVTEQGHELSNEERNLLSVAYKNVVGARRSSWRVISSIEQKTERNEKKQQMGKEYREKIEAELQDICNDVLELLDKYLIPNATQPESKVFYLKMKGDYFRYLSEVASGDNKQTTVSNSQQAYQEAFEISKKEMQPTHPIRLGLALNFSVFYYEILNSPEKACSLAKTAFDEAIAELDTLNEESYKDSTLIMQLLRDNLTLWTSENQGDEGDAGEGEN

14-3-3 protein theta = target: T4, 14-3-3 protein theta (Homo sapiens, UniProt P27348); test: Binding affinity to GST-tagged 125I-labelled full length human 14-3-3tau expressed in Escherichia coli by solid phase assay
T4 sequence (P27348 whole entry): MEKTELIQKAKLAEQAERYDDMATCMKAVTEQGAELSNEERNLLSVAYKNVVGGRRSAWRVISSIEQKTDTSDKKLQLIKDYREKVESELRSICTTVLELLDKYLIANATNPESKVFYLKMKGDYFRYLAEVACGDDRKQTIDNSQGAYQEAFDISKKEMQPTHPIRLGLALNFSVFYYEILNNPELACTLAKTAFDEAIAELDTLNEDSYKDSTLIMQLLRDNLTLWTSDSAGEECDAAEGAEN

14-3-3 protein eta = target: T5, 14-3-3 protein eta (Homo sapiens, UniProt Q04917); test: Binding affinity to GST-tagged 125I-labelled 14-3-3eta (unknown origin) expressed in Escherichia coli by solid phase assay
T5 sequence (Q04917 whole entry): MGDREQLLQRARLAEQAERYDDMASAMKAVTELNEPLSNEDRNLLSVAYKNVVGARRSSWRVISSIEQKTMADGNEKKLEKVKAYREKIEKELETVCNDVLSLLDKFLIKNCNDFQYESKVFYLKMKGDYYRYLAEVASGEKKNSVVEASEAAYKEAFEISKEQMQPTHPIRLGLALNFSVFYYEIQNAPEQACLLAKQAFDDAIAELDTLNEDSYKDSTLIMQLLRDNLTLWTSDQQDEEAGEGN

Serine/threonine-protein kinase Chk2 (Homo sapiens), sequence (O96017 whole entry, the tested form may be a part): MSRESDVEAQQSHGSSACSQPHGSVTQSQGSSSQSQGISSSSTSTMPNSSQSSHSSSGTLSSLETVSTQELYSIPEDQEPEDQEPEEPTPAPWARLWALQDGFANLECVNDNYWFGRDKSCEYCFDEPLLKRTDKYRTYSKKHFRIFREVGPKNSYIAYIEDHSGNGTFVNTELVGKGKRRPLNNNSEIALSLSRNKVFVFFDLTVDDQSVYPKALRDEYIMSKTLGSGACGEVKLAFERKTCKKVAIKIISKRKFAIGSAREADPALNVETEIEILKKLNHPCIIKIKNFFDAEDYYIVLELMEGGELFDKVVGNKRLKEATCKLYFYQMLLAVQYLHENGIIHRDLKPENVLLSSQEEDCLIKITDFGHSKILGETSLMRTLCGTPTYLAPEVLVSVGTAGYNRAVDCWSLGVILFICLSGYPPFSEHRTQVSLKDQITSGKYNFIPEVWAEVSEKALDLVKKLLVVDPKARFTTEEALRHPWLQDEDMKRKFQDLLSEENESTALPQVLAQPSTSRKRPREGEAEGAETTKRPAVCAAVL
Serine/threonine-protein kinase PLK1, sequence (P53350 whole entry, the tested form may be a part): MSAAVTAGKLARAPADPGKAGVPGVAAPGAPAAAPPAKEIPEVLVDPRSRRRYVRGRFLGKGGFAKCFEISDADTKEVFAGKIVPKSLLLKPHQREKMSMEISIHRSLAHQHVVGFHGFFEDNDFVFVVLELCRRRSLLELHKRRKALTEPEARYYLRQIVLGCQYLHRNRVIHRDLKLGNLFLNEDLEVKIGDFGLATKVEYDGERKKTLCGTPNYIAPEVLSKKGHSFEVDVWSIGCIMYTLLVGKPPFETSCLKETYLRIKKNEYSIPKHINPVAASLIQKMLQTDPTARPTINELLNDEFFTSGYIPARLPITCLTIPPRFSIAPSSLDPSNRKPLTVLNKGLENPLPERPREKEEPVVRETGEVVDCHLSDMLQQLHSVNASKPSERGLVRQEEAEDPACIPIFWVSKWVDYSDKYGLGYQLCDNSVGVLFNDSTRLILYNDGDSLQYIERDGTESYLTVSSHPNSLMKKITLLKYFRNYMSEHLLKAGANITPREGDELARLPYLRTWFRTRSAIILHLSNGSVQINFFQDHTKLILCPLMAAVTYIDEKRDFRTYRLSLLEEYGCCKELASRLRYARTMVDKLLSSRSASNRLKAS
Serine/threonine-protein kinase PLK3, sequence (Q9H4B4 whole entry, the tested form may be a part): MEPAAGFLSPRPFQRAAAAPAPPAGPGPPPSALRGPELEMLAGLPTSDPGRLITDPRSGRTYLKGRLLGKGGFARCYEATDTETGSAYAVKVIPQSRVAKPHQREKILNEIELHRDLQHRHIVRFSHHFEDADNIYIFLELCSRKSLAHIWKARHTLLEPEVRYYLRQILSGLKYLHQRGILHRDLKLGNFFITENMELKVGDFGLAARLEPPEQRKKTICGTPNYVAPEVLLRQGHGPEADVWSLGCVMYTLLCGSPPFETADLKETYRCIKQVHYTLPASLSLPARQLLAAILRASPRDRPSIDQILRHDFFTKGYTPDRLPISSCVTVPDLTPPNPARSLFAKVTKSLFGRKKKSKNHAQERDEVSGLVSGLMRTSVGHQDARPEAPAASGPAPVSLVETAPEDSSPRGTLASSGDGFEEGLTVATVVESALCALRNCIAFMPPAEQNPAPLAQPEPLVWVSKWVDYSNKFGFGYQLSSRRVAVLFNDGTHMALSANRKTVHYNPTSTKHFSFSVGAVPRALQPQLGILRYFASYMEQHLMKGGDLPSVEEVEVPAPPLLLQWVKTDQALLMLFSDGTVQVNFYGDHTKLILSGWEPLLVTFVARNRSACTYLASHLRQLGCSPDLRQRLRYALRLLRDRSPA
Peptidyl-prolyl cis-trans isomerase NIMA-interacting 1 (Homo sapiens), sequence (Q13526 whole entry, the tested form may be a part): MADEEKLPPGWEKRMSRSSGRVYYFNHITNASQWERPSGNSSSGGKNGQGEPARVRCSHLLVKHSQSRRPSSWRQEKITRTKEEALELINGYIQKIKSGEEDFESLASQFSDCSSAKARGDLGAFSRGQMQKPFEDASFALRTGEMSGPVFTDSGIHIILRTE
Serine/threonine-protein kinase PLK2, sequence (Q9NYY3 whole entry, the tested form may be a part): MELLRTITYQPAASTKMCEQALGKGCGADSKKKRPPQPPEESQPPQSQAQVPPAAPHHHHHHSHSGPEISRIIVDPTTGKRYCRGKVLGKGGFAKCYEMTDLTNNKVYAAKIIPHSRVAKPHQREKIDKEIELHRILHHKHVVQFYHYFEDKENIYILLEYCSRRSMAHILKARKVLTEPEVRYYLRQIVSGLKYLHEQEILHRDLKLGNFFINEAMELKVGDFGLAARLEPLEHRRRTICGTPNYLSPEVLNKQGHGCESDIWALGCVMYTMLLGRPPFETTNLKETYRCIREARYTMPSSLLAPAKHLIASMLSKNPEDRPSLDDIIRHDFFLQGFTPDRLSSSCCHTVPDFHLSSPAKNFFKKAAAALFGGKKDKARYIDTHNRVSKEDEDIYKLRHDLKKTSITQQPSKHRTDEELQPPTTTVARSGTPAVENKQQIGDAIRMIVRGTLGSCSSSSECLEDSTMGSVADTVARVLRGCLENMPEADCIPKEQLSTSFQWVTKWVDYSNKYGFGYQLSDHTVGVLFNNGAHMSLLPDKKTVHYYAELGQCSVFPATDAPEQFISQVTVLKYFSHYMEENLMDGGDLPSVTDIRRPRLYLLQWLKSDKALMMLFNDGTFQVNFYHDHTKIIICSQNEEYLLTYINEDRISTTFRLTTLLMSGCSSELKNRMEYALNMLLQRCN

SMILES: COC[C@H]1CC[C@@H]2/C1=C\[C@]1(C)C(=C(C(C)C)[C@@H]3CCO[C@@H]31)[C@@H](O[C@H]1O[C@@H]3COC(C)(C)O[C@H]3[C@H](O)[C@H]1O)[C@H](O)[C@@H]2C
fold change (FC) [1]: 19

IC50 (14-3-3 protein sigma): 5000 nM
SMILES: O=C(COc1ccccc1P(=O)(O)O)Nc1cccc(Cl)c1Cl

IC50 [2]: 3200 nM
IC50 [3]: 1700 nM
IC50 [4]: 3000 nM
inhibition [5]: 35%
inhibition [6]: 32%
SMILES: COc1ccc(Br)cc1/C=c1\sc2nc(=O)c(C)nn2c1=O

SMILES: CSCC[C@H](NC(=O)[C@H](CC(N)=O)NC(=O)[C@H](C)NC(=O)[C@H](CCC(=O)O)NC(=O)[C@H](CC(C)C)NC(=O)[C@H](CC(=O)O)NC(=O)[C@H](CC(C)C)NC(=O)[C@H](Cc1c[nH]c2ccccc12)NC(=O)[C@H](CO)NC(=O)[C@H](CC(C)C)NC(=O)[C@H](CC(=O)O)NC(=O)[C@H](CCCNC(=N)N)NC(=O)[C@@H]1CCCN1C(=O)[C@@H](NC(=O)[C@H](CS)NC(=O)[C@H](Cc1cnc[nH]1)NC(=O)[C@@H]1CCCN1)C(C)C)C(=O)N[C@@H](CS)C(=O)N[C@@H](CC(C)C)C(=O)N1CCC[C@H]1C(=O)O (H-PHCVPRDLSWLDLEANMCLP-OH)
Kd [7]: 70 nM
Kd (14-3-3 protein theta): 70 nM
Kd (14-3-3 protein eta): 70 nM
